Test results as given in EP4644391A1, “NOVEL PHENYLQUINOLONE COMPOUND HAVING ANTIBACTERIAL AND ANTICANCER FUNCTIONS, AND PREPARATION THEREOF” (Alphamol Science Ltd (Shanghai), priority 2022, dated 2024).
Values after ≈ are worked out from the molar mass of the structure shown.

Tested on: Staphylococcus aureus ATCC43300
Experiment: Resistance test of bacteria against compounds (serial passage, 21 days)
Type: cell-based
Settings: Staphylococcus aureus, ATCC43300, 504 h, read-out: MIC at the end of the experiment
Method: This example provides a resistance test of bacteria against compounds, and the specific experimental method is as follows. • 1. […] It was ensured that among the 6 final concentrations of the drug diluted into the wells, some were higher than the original MIC of the bacteria and some were lower than the original MIC of the bacteria. • 2. Preparation of bacterial liquid: 10 mL of culture medium was taken and added to a sterilized plate using a pipette, then 100 µL of the above-mentioned passaged bacterial liquid was added, and mixed well for later use. • 3. The above-mentioned diluted bacterial liquid was taken and added to a 96-well plate using a pipette, 180 µL per well, 3 wells per group, 6 groups in total. 20 µL of drug solution was added to each well (note: it is necessary to replace the pipette tip each time the drug is added), so that the final drug concentrations were 2 µg/mL, 1 µg/mL, 0.8 µg/mL, 0.4 µg/mL, 0.2 µg/mL, 0.1 µg/mL, respectively. The well with 200 µL of diluted bacterial liquid was used as the positive control well, and the well with 200 µL of culture medium was used as the negative control well.
The test object was Staphylococcus aureus (S. aureus). The specific results are shown in FIG1.

CN[C@H](CC(C)C)C(=O)N[C@H]1C(=O)N[C@@H](CC(N)=O)C(=O)N[C@H]2C(=O)N[C@H]3C(=O)N[C@H](C(=O)N[C@H](C(=O)O)c4cc(O)cc(O)c4-c4cc3ccc4O)[C@H](O)c3ccc(c(Cl)c3)Oc3cc2cc(c3O[C@@H]2O[C@H](CO)[C@@H](O)[C@H](O)[C@H]2O[C@H]2C[C@](C)(N)[C@H](O)[C@H](C)O2)Oc2ccc(cc2Cl)[C@H]1O [vancomycin]
MIC: 4 µg/mL (≈ 2.76 µM)
